The values below come from patent publication US9023354B2, “Combination therapy with MDM2 and EFGR inhibitors” (priority 2010, dated 2015).

In experiment [1] the test system is A431 cells. Put plainly: A431 cell proliferation assay (MTT), alone and in combination with Tarceva. In kind it is cell-based. To be noted: for synergistic effects with Tarceva in A431 cell proliferation (in words) / A431 Cell Proliferation CI Value: combination with Tarceva; for A431 Cell Proliferation CI Value: CI <0.8 indicates synergy.
The next experiment concerns the target p53/MDM2 binding (Homo sapiens (Human), UniProt Q00987). Put plainly: AlphaScreen measurement of p53/MDM2 interaction (truncated GST-MDM2 aa 1-150). As to the method: The following example describes an assay that measured the ability of compounds to inhibit the binding of p53 to MDM2 using the AlphaScreen assay technology (PerkinElmer). […] Recombinant, truncated, human, N-terminal GST-MDM2 (aa 1-150) was obtained from GeneScript. Wild-type, full length human N-terminal 6-his p53 was purchased from SignalChem.
Resulting in a final reaction volume of 24 μl PBS, 0.1% Tween-20, and 10% glycerol, 30 ng of MDM2 was added, followed by the addition of 10 of compound diluted in 100% DMSO that provided a final DMSO concentration of 4%. 30 ng of p53 was then added, mixed, and incubated at room temperature for 1 hour. Glutathione donor beads and Nickel acceptor beads (0.5 μg each; PerkinElmer) were added under subdued lighting conditions to a final reaction volume of 30 μl/well in a 96 well, ½ volume Proxima plate. The reaction was incubated at room temperature with shaking for 18 hrs in the dark. Analysis was then performed on a PerkinElmer EnSpire plate reader to determine the ability of compounds to inhibit the binding of p53 to MDM2.

Experiment [2] has as its target p53/MDM2 binding (full length MDM2) (Homo sapiens (Human), UniProt Q00987). Put plainly: AlphaScreen p53/MDM2 binding with full length GST-MDM2. To be noted: FIG. 1, read-out: inhibition of p53/MDM2 binding EC50. For orientation: Alpha assays give light when donor and acceptor beads are brought close together.
The test system of experiment [3] is p53-induced reporter gene activity. Put plainly: p53 reporter gene assay in HEK293 cells. The class given is cell-based. Particulars: 10 μM. On the procedure:
This example describes an assay that measures the ability of compounds to stimulate p53-induced reporter gene activity. In order for p53 activity to be observed, the interaction of p53 with MDM2 must be inhibited. Methods are according to Examples 1-5 unless otherwise specified.
HEK293 cells were transiently transfected with the inducible p53-responsive firefly luciferase reporter and constitutively-expressing Renilla construct. After 16 hrs of transfection at 37° C., 5% CO2, the transfection media was removed and 200 μl/well of assay media was added. The cells were then incubated for 8 hrs at 37° C., 5% CO2.
[…] of compound(s) was added to the cells and incubated for 16 hrs at 37° C. and 5% CO2. The cells were carefully washed with 200 μl of PBS. 20 μl_of lysis buffer was then added to each well and incubated at room temperature for 15 minutes with shaking.
The lysis buffer supernatant was transferred to a white/opaque CoStar 96-well plate and 100 μl of firefly luceriferase assay substrate was added. The luminescence in each well was determined using a Polarstar plate reader.
100 μl of Stop and Glow reagent was added to each well, mixed, and the luminescence generated by the Renilla luciferase was determined using a Polarstar plate reader. The Renilla signal was used to normalize the transfection efficiency and cell viability.
(Reporter assays use an easily measured gene product as a stand-in for the process of interest.)

In experiment [4] the test system is A431 cells. Put plainly: Caspase 3/7 activity, measurement of apoptosis. The class given is cell-based. Particulars: 10 μM compared to 10 μM Tarceva.
Experiment [5] has as its system p53 and phospho-p53 (S15) in A549 NSCLC cells. Put plainly: p53 In-Cell Western. In kind it is cell-based, human. To be noted: about 1-3 μM.
Experiment [6] concerns apoptosis-related proteins in A549 cells. Put plainly: Proteome profile of apoptosis-related proteins. In kind it is cell-based, human. To be noted: 5 μM. The source says:
This example describes an assay that measured the relative expression levels of 35 apoptosis-related proteins in a single sample of whole cell extract. Methods are according to Examples 1-2 unless otherwise specified.
The protocol and reagents were purchased from R&D systems (Human apoptosis array kit; cat. #ARY009). The kit consisted of an antibody array spotted on nitrocellulose membranes with each specific antibody printed in duplicate. The detection antibodies were biotinylated so they could be used with a streptavidin-HRP conjugate designed for chemiluminescent imaging. The protocol was modified to utilize the LiCor infrared imaging technology by substituting an infrared 680 nm-tagged streptavidin.
The following day, two μl of compound dilutions in 100% DMSO were added to the appropriate wells resulting in a final concentration of 5 μM. The plates were then incubated for 6 hours at 37° C., 5% CO2, and 85% relative humidity. Following incubation, the cells were washed with 2 ml of PBS, then lysed with 500 μl/well of Lysis buffer, supplemented with a 1/200 dilution of mammalian protease inhibitor cocktail (Sigma Aldrich). The plates were shaken for 30 min at room temperature, spun @ 14,000×g for 5 minutes. 250 μl of the supernatant was removed and added to 1.25 ml of Assay buffer 1. The supernatant and Assay buffer 1 were incubated with membranes overnight at room temperature with shaking.
The following day, the membranes were washed 3 times for 10 min each, with 1× wash buffer in individual 50 ml Falcon tubes at room temperature with rotation. The membranes were incubated with a 1/100 dilution of biotinylated detection antibodies for 3 hours at room temperature with shaking.
The membranes were washed, then incubated with a 1/1000 dilution of IR 680 nm-labeled streptavidin (LiCor) for 60 minutes with shaking in the dark. The membranes were again washed. Excess buffer was blotted from membranes, placed between two pieces of transparent plastic and imaged on the LiCor infrared imager. The LiCor Odyssey software is used to quantitate the pixel intensity of each spot in the array.
First, several compounds were evaluated in a proteome profiling array system containing antibodies to 35 apoptosis-related proteins. In this assay (see Example 3), the relative expression levels of these proteins in cell extracts are measured from treated and non-treated A549 cells.

A further experiment deals with A549 cells. Put plainly: DNA fragmentation (Cell Death Detection ELISA), measurement of apoptosis. To be noted: A549 cells.
Where [7] appears, read: Homo sapiens, A-431, A431 cells, further studies, Example 9, Table 7A, read-out: A431 Cell Proliferation (IC50 Value).
The mark [8] stands for this setting: Homo sapiens, A-431, A431 cells, preliminary assessment, Example 8, Table 6A, read-out: A431 Cell Proliferation (IC50).
Where [9] appears, read: Table 7C, read-out: p53/MDM2 IC50 Value.
Where [10] appears, read: Table 9, read-out: Inhibition of p53/MDM2 Binding IC50 Value.
The mark [11] stands for this setting: A431 cells, further studies, Example 9, Table 7A, read-out: A431 Cell Proliferation (IC50 Value).

Like-named read-outs stand apart in the source and are kept apart here.

Sequence of p53/MDM2 binding (Q00987 1-150): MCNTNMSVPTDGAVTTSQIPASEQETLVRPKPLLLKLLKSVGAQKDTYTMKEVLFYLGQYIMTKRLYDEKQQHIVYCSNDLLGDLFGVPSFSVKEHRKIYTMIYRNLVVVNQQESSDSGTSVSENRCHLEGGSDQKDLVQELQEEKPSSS
Sequence of p53/MDM2 binding (full length MDM2) (Q00987 whole entry): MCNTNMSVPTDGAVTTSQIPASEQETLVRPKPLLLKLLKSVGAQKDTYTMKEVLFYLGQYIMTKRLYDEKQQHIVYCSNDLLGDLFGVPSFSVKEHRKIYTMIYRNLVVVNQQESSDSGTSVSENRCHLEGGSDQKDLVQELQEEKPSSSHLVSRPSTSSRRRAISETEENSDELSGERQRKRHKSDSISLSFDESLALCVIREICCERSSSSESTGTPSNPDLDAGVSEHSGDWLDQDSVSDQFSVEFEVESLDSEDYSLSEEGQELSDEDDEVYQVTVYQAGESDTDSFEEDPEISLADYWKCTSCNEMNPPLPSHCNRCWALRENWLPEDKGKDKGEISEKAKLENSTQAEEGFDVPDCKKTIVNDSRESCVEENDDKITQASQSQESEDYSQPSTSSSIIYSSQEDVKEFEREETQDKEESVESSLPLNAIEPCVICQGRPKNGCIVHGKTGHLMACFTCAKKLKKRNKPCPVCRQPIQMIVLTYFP

In the case of `COc1ccc(C(Nc2cc(C)ccn2)c2ccc3cccnc3c2O)cc1O` (stereo not drawn) [AD4-1505], the IC50 is 3.7 µM in the experiment on A431 cells [1] (setting [7]), 3.7 µM in the experiment with A431 cells [1] (setting [8]), 3.6 µM at p53/MDM2 binding (setting [9]) and 4.2 µM on p53/MDM2 binding (setting [10]). Besides, the “synergistic effects with Tarceva in A431 cell proliferation (in words)” value with A431 cells [1] is given as “produced the greatest effects”. Moreover, the “A431 Cell Proliferation CI Value” in the experiment with A431 cells [1] (Example 8, Table 6B) stood at 0.45; in the experiment on A431 cells [1] (Example 9, Table 7B) it was 0.29. Besides, in experiment [2], the EC50 was 0.27 µM. Besides, the “stimulation of p53 reporter gene activity” value (“stimulation” for short) in experiment [3] was found to be 42.5 fold. Besides, the “Caspase 3/7 activity % Increase Relative to Tarceva” value in the experiment with A431 cells [4] stood at 45%.

`Cc1ccc(C)c(C(Nc2cccnc2)c2cc(Cl)c3cccnc3c2O)c1` (stereo not drawn) [AD4-10944]: the IC50 in the experiment on A431 cells [1] (setting [11]) is 1.8 µM; in the experiment on A431 cells [1] (A431 cells, preliminary assessment, Example 8, Table 6A, read-out: A431 Cell Proliferation (IC50)), 1.8 µM. Moreover, the “stimulation” value in experiment [3] is on record as 7.5 fold.

For the molecule `CCOc1ccc(C(Nc2ccccn2)c2cc(Cl)c3cccnc3c2O)cc1` (stereo not drawn) [AD4-10953], the “stimulation” value in experiment [3] was 9.7 fold.

Take `Cc1ccnc(NC(c2ccc3cccnc3c2O)c2sccc2C)c1` (stereo not drawn) [AD4-10963]: the IC50 was 3.4 µM with A431 cells [1] (setting [7]), 3.4 µM with A431 cells [1] (setting [8]), 2 µM on p53/MDM2 binding (setting [9]) and 2 µM at p53/MDM2 binding (setting [10]). Moreover, the “synergistic effects with Tarceva in A431 cell proliferation (in words)” value with A431 cells [1] was “produced the greatest effects”. In addition, the “A431 Cell Proliferation CI Value” in the experiment with A431 cells [1] (Example 8, Table 6B) is listed as 0.43; in the experiment on A431 cells [1] (Example 9, Table 7B) it was 0.63. Besides, the EC50 in experiment [2] worked out at 0.1 µM. Also, in the experiment with A431 cells [4], the “Caspase 3/7 activity % Increase Relative to Tarceva” value amounted to 38%.

For `Cc1cc(Cl)cnc1NC(c1ccc2cccnc2c1O)c1c(F)c(F)c(OCC(F)(F)F)c(F)c1F` (stereo not drawn) [AD4-13243], the IC50 in the experiment with A431 cells [1] (setting [11]) amounted to 2.2 µM. For the same molecule, in experiment [5], the “S15p-p53 (phosphorylated S15 p53)” value is reported as “significantly increased” and the “total p53 expression” value is listed as “significantly increased”. In experiment [6], the “phosphorylated forms of p53” value is listed as “increased all three phosphorylated forms of p53”. The “DNA fragmentation / apoptosis (in words)” value with A549 cells is on record as “increased DNA fragmentation”. The “% Inc. over Background, DNA fragmentation” value in the experiment on A549 cells (1 μM) was 551%. The “% Inc. over Background, DNA fragmentation” value with A549 cells (10 μM) is 716%.
